We go through one compound from patent US10646492B2, “Heterocyclylamines as PI3K inhibitors” (Incyte Corporation, priority 2011, dated 2020).

This experiment has as its target PI3Kδ (p110δ/p85α) (Homo sapiens (Human), UniProt O00329). Nature of the experiment: PI3Kδ scintillation proximity assay (Example A3). It is filed as biochemical. The settings on record: 20 μM ATP, 4 nM PI3Kδ, read-out: PI3Kδ SPA IC50. How it is done:
PI3Kδ (p110δ/p85α) was purchased from Millipore (Bedford, Mass.). ATP, MgCl2, DTT, EDTA, MOPS and CHAPS were purchased from SigmaAldrich (St. Louis, Mo.). Wheat Germ Agglutinin (WGA) YSi SPA Scintillation Beads was purchased from GE healthcare life sciences (Piscataway, N.J.). The kinase reaction was conducted in polystyrene 384-well matrix white plate from Thermo Fisher Scientific in a final volume of 25 μL. Inhibitors were first diluted serially in DMSO and added to the plate wells before the addition of other reaction components. The final concentration of DMSO in the assay was 0.5%. The PI3K assays were carried out at room temperature in 20 mM MOPS, pH 6.7, 10 mM MgCl2, 5 mM DTT and CHAPS 0.03%. Reactions were initiated by the addition of ATP, the final reaction mixture consisted of 20 μM PIP2, 20 μM ATP, 0.2 μCi [γ-^33P]ATP, 4 nM PI3Kδ. […] 25 mM EDTA, 400 μM ATP. The final concentration of SPA beads was 1.0 mg/mL. […] IC50 determination was performed by fitting the curve of percent control activity versus the log of the inhibitor concentration using the GraphPad Prism 3.0 software.
Background: SPA uses beads or plates that emit light when radiolabelled molecules are held near them.

A word on the IC50: it is the midpoint of a concentration-inhibition curve.

PI3Kδ (p110δ/p85α), sequence (O00329 whole entry): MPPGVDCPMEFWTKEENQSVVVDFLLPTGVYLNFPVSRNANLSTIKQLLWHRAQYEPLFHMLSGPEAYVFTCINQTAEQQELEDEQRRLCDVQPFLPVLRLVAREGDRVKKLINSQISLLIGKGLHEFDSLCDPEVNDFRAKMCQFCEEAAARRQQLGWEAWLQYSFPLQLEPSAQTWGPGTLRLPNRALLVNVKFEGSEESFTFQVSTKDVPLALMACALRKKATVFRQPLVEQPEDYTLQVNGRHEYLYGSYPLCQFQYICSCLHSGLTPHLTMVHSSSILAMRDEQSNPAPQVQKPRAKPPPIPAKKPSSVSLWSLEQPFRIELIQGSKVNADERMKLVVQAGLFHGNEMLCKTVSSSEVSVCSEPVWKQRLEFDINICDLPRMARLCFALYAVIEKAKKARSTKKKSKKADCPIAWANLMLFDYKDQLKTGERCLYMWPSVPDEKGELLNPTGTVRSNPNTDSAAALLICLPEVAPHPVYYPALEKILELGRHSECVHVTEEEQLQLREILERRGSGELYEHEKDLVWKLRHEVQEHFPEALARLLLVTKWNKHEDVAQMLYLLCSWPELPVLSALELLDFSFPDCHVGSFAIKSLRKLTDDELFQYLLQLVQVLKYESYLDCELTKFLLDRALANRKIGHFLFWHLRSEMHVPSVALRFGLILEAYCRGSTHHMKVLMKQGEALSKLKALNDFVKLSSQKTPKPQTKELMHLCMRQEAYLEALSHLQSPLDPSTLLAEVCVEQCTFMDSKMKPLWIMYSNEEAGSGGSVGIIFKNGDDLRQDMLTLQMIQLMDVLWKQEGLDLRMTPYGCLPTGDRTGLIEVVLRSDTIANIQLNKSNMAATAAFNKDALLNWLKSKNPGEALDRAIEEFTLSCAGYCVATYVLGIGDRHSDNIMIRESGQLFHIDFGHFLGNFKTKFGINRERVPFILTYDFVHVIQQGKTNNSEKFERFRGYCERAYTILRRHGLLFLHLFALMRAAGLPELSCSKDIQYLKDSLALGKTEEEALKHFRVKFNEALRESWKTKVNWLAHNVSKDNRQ
PI3Kδ (p110δ/p85α), sequence (P27986 whole entry partner): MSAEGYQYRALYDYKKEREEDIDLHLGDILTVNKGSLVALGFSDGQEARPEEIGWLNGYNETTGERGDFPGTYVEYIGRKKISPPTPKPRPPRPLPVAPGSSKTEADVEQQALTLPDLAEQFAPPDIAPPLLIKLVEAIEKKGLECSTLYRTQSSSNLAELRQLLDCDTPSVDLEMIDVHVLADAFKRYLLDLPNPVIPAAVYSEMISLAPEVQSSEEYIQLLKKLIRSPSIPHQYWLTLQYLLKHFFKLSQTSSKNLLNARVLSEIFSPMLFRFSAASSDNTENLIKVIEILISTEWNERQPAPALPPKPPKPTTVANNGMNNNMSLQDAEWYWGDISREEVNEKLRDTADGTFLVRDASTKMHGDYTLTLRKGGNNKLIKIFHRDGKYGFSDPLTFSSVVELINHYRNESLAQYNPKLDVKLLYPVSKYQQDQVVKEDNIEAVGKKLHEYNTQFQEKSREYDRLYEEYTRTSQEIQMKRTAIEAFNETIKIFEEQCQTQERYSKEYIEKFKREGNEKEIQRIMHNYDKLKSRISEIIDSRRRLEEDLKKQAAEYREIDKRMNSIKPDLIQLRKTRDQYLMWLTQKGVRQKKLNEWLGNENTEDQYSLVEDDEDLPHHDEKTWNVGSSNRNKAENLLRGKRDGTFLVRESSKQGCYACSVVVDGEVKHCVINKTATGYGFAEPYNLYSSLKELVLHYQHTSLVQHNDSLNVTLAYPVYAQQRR

As to `CCOc1c(C(C)n2nc(C)c3c(N)ncnc32)cc(Cl)c(C#N)c1-c1ccc(C(=O)NC)nc1` (stereo not shown) [Example 333, 5-{3-[1-(4-amino-3-methyl-1H-pyrazolo[3,4-d]pyrimidin-1-yl)ethyl]-5-chloro-6-cyano-2-ethoxyphenyl}-N-methylpyridine-2-carboxamide], the half-inhibitory concentration (IC50) is under 10 nM.
